According to patent US8212112B2, “Gene participating in low temperature germinability in rice and utilization of the same” (Hokuren Federation of Agricultural Cooperatives, priority 2007, dated 2012):

Experiments:
[1] = tested on: rice seeds (Hayamasari, NILHYqLTG-3-1, Italica Livorno); assay: germination tests under stress conditions (ABA, GA, NaCl, mannitol, temperature); set-up: species or system rice (O. sativa); conditions: for germination response at low NaCl / mannitol concentrations: concentrations lower than 250 mM mannitol and 150 mM NaCl
Description: To study the germinability under difference stress conditions, germination tests were carried out according to the method reported by Fujino et al. (2004). For low-temperature stress, seeds were placed on Petri dishes which were then loaded into an incubator. Solutions of plant hormones (ABA and GA), NaCl and mannitol at different concentrations were added to the Petri dishes which were then placed in an incubator. […] (A) is the germination at the optimal temperature of 25° C., (B) is the germination at 13° C., (C) is the sensitivity to NaCl (300 mM), (D) is the sensitivity to mannitol (500 mM), and (E) is the sensitivity to ABA ([…]). Examples of […]-3-1 (closed triangles), and Italica Livorno (open circles) are shown. The numerical values represent the mean±standard deviation (SD) for triplicates. […] In (A), the seeds were incubated in water at 25° C., 15° C., 13° C. and 10° C. In (B), GA (100, 200, 500 μM) was added at 15° C.; in (C), ABA ([…]) was added at 25° C.; in (D), NaCl (150, 250, 300 mM) was added; and in (E), mannitol (250, 500, 600 mM) was added, following which incubation was carried out. The open circles indicate controls. The low concentrations to high concentrations are indicated by, in order, open circles, triangles and squares. […] The open and closed symbols represent, respectively, the presence and absence of […]-3-1 and Italica Livorno are represented by, respectively, circles, triangles, and squares. […] Germination tests were carried out by the method reported by Fujino et al. (2004). For the low temperature stress, seeds on a Petri dish were placed in an incubator. Solutions of plant hormone (ABA and GA) and mannitol at different concentrations were added to the Petri dishes at this time before placing the dishes in the incubator.

qLTG-3-1 gene = qLTG-3-1 gene expression by Northern blot and RT-PCR analysis; set-up: species or system rice (O. sativa); conditions: ABA, NaCl (250 mM), mannitol (500 mM)
Description: To carry out an analysis of gene expression, the total RNA was extracted from various organs of rice using RNAiso (TAKARA). The total RNA (0.5 μg) was reverse-transcripted with Rever Tra Ace (TOYOBO) having an Oligo(dT)20 primer, in accordance with the manufacturing guidelines. The PCR reaction was carried out using KOD-plus (TOYOBO). Each PCR reaction (10 μL) included 0.5 μL of cDNA template that had been diluted 5-fold. The specificity of each primer for the target gene was confirmed by PCR product sequencing. For the purpose of Northern blotting analysis, the total RNA (4 μg/sample) was isolated on 2.0% (w/v) agarose-modified formaldehyde gel containing 40 mM MOPS (pH 7.0), 10 mM Na-acetate, 1 mM EDTA and 2% (v/v) formaldehyde.
The RNA was transferred with 20×SSC to a positively charged nylon membrane (Roche Diagnostics). Hybridization and signal detection were carried out by, respectively, a DIG system and CDP-star (Roche Diagnostics). The PCR fragments from the primers 13-5U and 13-5L were used as the probes for Northern blot analysis. The primers and amplification conditions for RT-PCR analysis are shown subsequently in Table 5.
In this example, the expression of the qLTG-3-1 gene was studied. Using RNAiso (TAKARA), the total RNA was extracted from each organ of rice and treated with DNaseI (TAKARA). For Northern blot analysis, the total RNA (4 μg/sample) was separated on 2.0% (w/v) agarose-modified formaldehyde gel containing 40 mM of MOPS (pH 7.0), 10 mM of sodium acetate and 2% (v/v) formaldehyde.
The RNA was blotted with 20×SSC to a positively charged nylon membrane (Roche Diagnostics). Hybridization and signal detection were carried out with a DIG system and CDP-Star (Roche Diagnostics) according to the manufacturing guidelines. The PCR fragments obtained from the primers 13-5U and 13-5L were used as the probes for Northern blot analysis (Table 5).
In this example, the association between qLTG-3-1 expression and seed germination was examined. […]

| Compound | germination response in ABA treatment ([1]; ABA added at 25° C.) | qLTG-3-1 expression pattern in embryos under stress treatment (qLTG-3-1 gene) | effect of exogenous GA on seed germination ([1]; 15° C., Hayamasari, NILHYqLTG-3-1 and Italica Livorno) | germination response at low NaCl / mannitol concentrations [1] |
| --- | --- | --- | --- | --- |
| CC1=CC(=O)CC(C)(C)C1(O)/C=C/C(C)=C\C(=O)O (stereo not shown) [ABA] | a delay in germination was observed in both parents | delay and suppression of qLTG-3-1 expression |  |  |
| C=C1C[C@]23C[C@@]1(O)CC[C@H]2[C@@]12C=C[C@H](O)[C@@](C)(C(=O)O1)[C@H]2[C@@H]3C(=O)O [GA] |  |  | did not promote seed germination in any of the genotypes |  |
| [Cl-].[Na+] [NaCl] |  | delay and suppression of qLTG-3-1 expression |  | all the varieties showed a delay in germination |
| OC[C@@H](O)[C@@H](O)[C@H](O)[C@H](O)CO [mannitol] |  | delay and suppression of qLTG-3-1 expression |  | all the varieties showed a delay in germination |
